We go through 27 compounds from PMC5733478, “A Non-imaging High Throughput Approach to Chemical Library Screening at the Unmodified Adenosine-A3 Receptor in Living Cells” (Frontiers in Pharmacology, 2017).

Structures can show the parent of a compound that is named as a salt.

The target in the first assay is T1, human A3AR (Homo sapiens, UniProt P0DMS8).
T1 construct: expressed in transfected cells
T1 sequence (P0DMS8 1-318): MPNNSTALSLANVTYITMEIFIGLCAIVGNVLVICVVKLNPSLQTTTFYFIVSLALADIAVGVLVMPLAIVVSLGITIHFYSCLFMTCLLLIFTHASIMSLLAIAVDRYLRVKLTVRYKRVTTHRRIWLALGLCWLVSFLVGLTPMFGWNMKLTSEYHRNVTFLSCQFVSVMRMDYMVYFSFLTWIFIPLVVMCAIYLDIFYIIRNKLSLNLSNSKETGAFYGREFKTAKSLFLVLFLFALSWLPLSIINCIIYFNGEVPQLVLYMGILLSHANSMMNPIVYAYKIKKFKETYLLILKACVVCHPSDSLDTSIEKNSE
As to the kind of experiment: LOPAC library primary screen: single concentration (10 μM) inhibition of 25 nM CA200645 binding, PHERAstar FS.
Conditions: not given
Regarding `c1ccc2cc(-c3ncc[nH]3)ccc2c1` [Benazoline oxalate], the “% 25 nM CA200645 binding” value amounted to 98.8 ± 14.3%.

`Cl.Cn1c(CCCC(=O)O)nc2cc(N(CCCl)CCCl)ccc21` [Bendamustine hydrochloride]: the “% 25 nM CA200645 binding” value was determined as 97.6 ± 4.1%.

Regarding `COc1cccc(OC)c1OCCNCC1CSc2ccccc2O1` (stereo not drawn) [Benoxathian hydrochloride], the “% 25 nM CA200645 binding” value is listed as 95.8 ± 4.4%.

As for `NC(CO)C(=O)NNCc1ccc(O)c(O)c1O` (stereo not drawn) [Benserazide hydrochloride], the “% 25 nM CA200645 binding” value came out at 98.9 ± 5.3%.

In the case of `NC(=O)c1ccccc1` [Benzamide], the “% 25 nM CA200645 binding” value is on record as 99.1 ± 4.7%.

`N=C(N)c1ccccc1` [Benzamidine hydrochloride]: the “% 25 nM CA200645 binding” value is recorded as 90.8 ± 8.3%.

Take `NC(=NCc1ccccc1)NC(=O)c1nc(Cl)c(N)nc1N` [Benzamil hydrochloride]: the “% 25 nM CA200645 binding” value is given as 95.3 ± 5.6%.

As for `CN1[C@@H]2CC[C@H]1C[C@@H](OC(c1ccccc1)c1ccccc1)C2` [Benztropine mesylate], the “% 25 nM CA200645 binding” value is reported as 96.0 ± 5.8%.

As for `CC(C)COCC(CN(Cc1ccccc1)c1ccccc1)N1CCCC1` (stereo not drawn) [Bepridil hydrochloride], the “% 25 nM CA200645 binding” value is given as 101.8 ± 6.3%.

Regarding `C[N+](C)(C)CC=O` [Betaine aldehyde chloride], the “% 25 nM CA200645 binding” value is recorded as 95.0 ± 5.8%.

On to `C[N+](C)(C)CC(=O)O` [Betaine hydrochloride], for which the “% 25 nM CA200645 binding” value stood at 78.7 ± 15.6%.

Regarding `C[C@H]1C[C@H]2[C@@H]3CCC4=CC(=O)C=C[C@]4(C)[C@@]3(F)[C@@H](O)C[C@]2(C)[C@@]1(O)C(=O)CO` [Betamethasone], the “% 25 nM CA200645 binding” value is reported as 77.0 ± 7.6%.

Turning to `CC(C)NCC(O)COc1ccc(CCOCC2CC2)cc1` (stereo not drawn) [Betaxolol hydrochloride], the “% 25 nM CA200645 binding” value is reported as 98.4 ± 4.9%.

In the case of `CC(C)(Oc1ccc(CCNC(=O)c2ccc(Cl)cc2)cc1)C(=O)O` [Bezafibrate], the “% 25 nM CA200645 binding” value is given as 93.0 ± 7.9%.

On to `CC(O)(CS(=O)(=O)c1ccc(F)cc1)C(=O)Nc1ccc(C#N)c(C(F)(F)F)c1` (stereo not drawn) [Bicalutamide (CDX)], for which the “% 25 nM CA200645 binding” value came out at 96.9 ± 5.3%.

As to `OC(CCN1CCCCC1)(c1ccccc1)C1CC2C=CC1C2` (stereo not drawn) [Biperiden hydrochloride], the “% 25 nM CA200645 binding” value is recorded as 86.9 ± 6.4%.

For `CC(C)NCC(O)COc1ccc(COCCOC(C)C)cc1.CC(C)NCC(O)COc1ccc(COCCOC(C)C)cc1.O=C(O)/C=C/C(=O)O` (stereo not drawn) [Bisoprolol hemifumarate salt], the “% 25 nM CA200645 binding” value was determined as 106.9 ± 6.1%.

Take `C=CCc1ccccc1OCC(O)CNC1(C)CCC(C(C)(C)NC(=O)CBr)CC1` (stereo not drawn) [Bromoacetyl alprenolol menthane]: the “% 25 nM CA200645 binding” value came to 102.8 ± 4.8%.

In the case of `C[N+](C)(C)CCOC(=O)CBr.[Br-]` [Bromoacetylcholine bromide], the “% 25 nM CA200645 binding” value was found to be 95.1 ± 8.8%.

For `CCCC1O[C@@H]2C[C@H]3[C@@H]4CCC5=CC(=O)C=C[C@]5(C)[C@H]4[C@@H](O)C[C@]3(C)[C@]2(C(=O)CO)O1` (stereo partly drawn) [Budesonide], the “% 25 nM CA200645 binding” value is on record as 92.7 ± 8.6%.

Turning to `CC(NC(C)(C)C)C(=O)c1cccc(Cl)c1` (stereo not drawn) [Bupropion hydrochloride], the “% 25 nM CA200645 binding” value was determined as 98.9 ± 4.9%.

For `O=C1CC2(CCCC2)CC(=O)N1CCCCN1CCN(c2ncccn2)CC1` [Buspirone hydrochloride], the “% 25 nM CA200645 binding” value is 102.9 ± 6.0%.

For the compound `Clc1nccc2c1ccc1ccccc12` [CBIQ], the “% 25 nM CA200645 binding” value is reported as 87.1 ± 7.0%.

Regarding `CS(=O)(=O)O.Cn1cc(C(F)(F)F)nc1-c1ccc(OCC(O)CNCCOc2ccc(O)c(C(N)=O)c2)cc1` (stereo not drawn) [CGP 20712A methanesulfonate], the “% 25 nM CA200645 binding” value is reported as 106.4 ± 13.7%.

`Nc1ncnc2n[nH]c(Nc3ccc(F)cc3)c12` [CGP 57380]: the “% 25 nM CA200645 binding” value is 81.2 ± 23.0%.

The assay is the same for the next values; noted with them: compounds tested at 10 µM; % of control wells (1% DMSO and 25 nM CA200645); […]; mean ± SD, three experiments in duplicate.
Regarding `CCCCNc1cc(C(=O)O)cc(S(N)(=O)=O)c1Oc1ccccc1` [Bumetanide], the “% 25 nM CA200645 binding” value was 94.3 ± 2.5%.

The assay is the same for the next values; noted with them: compounds tested at 10 µM; % of control wells (1% DMSO and 25 nM CA200645); whole live cells expressing the A3AR; mean ± SD, three experiments in duplicate.
For `NC(=O)c1cc(N2CC2)c([N+](=O)[O-])cc1[N+](=O)[O-]` [CB 1954], the “% 25 nM CA200645 binding” value stood at 93.7 ± 2.8%.
